We go through 1 compound from US20060177553A1, “Method of powdering nonsugar component and powdering base” (priority 2003, published 2006).

Assay type in all cases: physicochemical
The nature of series [1]: Hygroscopicity of the product.
Series [2] can be described thus: Reducing power (DE, Somogyi-Nelson method). The method, then:
A reagent grade maltotetraose (purity 97.0% or higher), commercialized by Hayashibara Biochemical Laboratories Inc., Okayama, Japan, was prepared into 20% solution and admixed with two units/g-saccharide of non-reducing saccharide-forming enzyme, disclosed in Japanese Patent No. 44695/81, and followed enzymatic reaction at 46° C. for 48 hours, and the saccharide solution containing 79.8% of α-maltosyl α,α-trehalose, d.s.b., was obtained. After adjusting the pH to 6.0, the saccharide solution was admixed with 10 units/g-saccharide of β-amylase, commercialized by Nagase & Co., Ltd., Osaka, Japan, and followed enzymatic reaction at 50° C. for 48 hours to hydrolyze maltotetraose. After autoclaving at 120° C. for 10 minutes, the reaction mixture was cooled and filtrated. The resulting filtrate was subjected to a column chromatography using “XT-1016 (Na^+-form, degree of crosslinking 4%)”, a strong acid cation-exchanger resin commercialized by Rohm and Hass Japan K.K., Fukushima, Japan, and collected α-maltosyl α,α-trehalose high content fractions. The saccharide solution was purified, concentrated, and spray-dried to prepare an amorphous powdery α-maltosyl α,α-trehalose high content base for the powderization.

A short description of series [3]: Solubility in water of the product.

For `OC[C@H]1O[C@H](O[C@H]2O[C@H](CO)[C@@H](O[C@H]3O[C@H](CO)[C@@H](O[C@H]4O[C@H](CO)[C@@H](O)[C@H](O)[C@H]4O)[C@H](O)[C@H]3O)[C@H](O)[C@H]2O)[C@H](O)[C@@H](O)[C@@H]1O` [Example A-5, α-maltosyl α,α-trehalose], in series [1], the hygroscopicity entry is “low”. Moreover, the reducibility result in series [2] is given as “no reducibility”. The reducing power result in series [2] (Somogyi-Nelson method) is “less than the detection limit”. Moreover, the solubility in water result in series [3] is “satisfactory”.
